Experimental data from patent publication US20240245673A1, “Papain-like protease (PLpro) inhibitors” (Pfizer Inc., priority 2022, published 2024).
Where two headings read alike, the source gives them in different places.

Target: SARS-CoV-2 Papain like protease (PLpro) (Severe acute respiratory syndrome coronavirus 2 (2019-nCoV) (SARS-CoV-2), UniProt P0DTD1)
Assay: Papain Like Protease (PLpro) biochemical assay with profluorogenic substrate Z-RLRGG-AMC
Details: SARS-CoV-2 PLpro 6.25 nM, 25 μM Z-RLRGG-AMC substrate, 60 minute reaction

Row | Structure (SMILES) | IC50 (read-out: IC50) [µM] | IC50 (IC50 (μM)) [µM]
1 | CCOC(=O)[C@@H]1O[C@H]1C(=O)NNC(=O)CCc1ccccc1C(=O)N[C@H](C)c1cc(-c2cnn(C)c2)nc2ccccc12 [Example 250, ethyl (2R,3R)-3-(2-(3-(2-(((R)-1-(2-(1-methyl-1H-pyrazol-4-yl)quinolin-4-yl)ethyl)carbamoyl)phenyl)propanoyl)hydrazine-1-carbonyl)oxirane-2-carboxylate] | 0.002 | 
2 | Cc1ccccc1C(=O)NC(C)c1cc(C2CCOCC2)nc2ccccc12 (stereo in doubt) [Example 155, 2-methyl-N-{(1R)-1-[2-(oxan-4-yl)quinolin-4-yl]ethyl}benzamide] | 0.581 | 
3 | COC[C@H](OCc1cocn1)c1ccc(C(=O)NC2(c3cc(-c4cc(C(=O)N(C)C)n[nH]4)cc4ncccc34)CC2)c(C)c1 (single isomer, unassigned) [Example 359] | < 0.001 | 
4 | Cc1ccc(N2CC3CC(C2)N3)cc1C(=O)NC1(c2cc(-c3cnn(C)c3)nc3ccccc23)CC1 [Example 289, 5-(3,6-diazabicyclo[3.1.1]heptan-3-yl)-2-methyl-N-(1-(2-(1-methyl-1H-pyrazol-4-yl)quinolin-4-yl)cyclopropyl)benzamide] |  | 0.001
5 | Cc1ccccc1C(=O)NC(C)c1cc(-c2cn[nH]c2)nc2ccccc12 (stereo not drawn) [Example 101, 2-methyl-N-{1-[2-(1H-pyrazol-4-yl)quinolin-4-yl]ethyl}benzamide] | 0.198 | 
6 | Cc1cc(COCc2cscn2)ccc1C(=O)NC1(c2cc(-c3cnn(CC(=O)N(C)C)c3)nc3ccccc23)CC1 [Example 342, N-(1-(2-(1-(2-(dimethylamino)-2-oxoethyl)-1H-pyrazol-4-yl)quinolin-4-yl)cyclopropyl)-2-methyl-4-((thiazol-4-ylmethoxy)methyl)benzamide] | < 0.001 | 
7 | Cc1ccc(CN)cc1C(=O)NC(C)c1cc(-n2ccnc2)nc2ccccc12 (stereo not drawn) [Example 36, N-(1-(2-(1H-imidazol-1-yl)quinolin-4-yl)ethyl)-5-(aminomethyl)-2-methylbenzamide] |  | 0.21
8 | CCN(CCOC)c1cc(C(C)NC(=O)c2ccccc2C)c2ccccc2n1 (stereo not drawn) [Example 149, N-(1-{2-[ethyl(2-methoxyethyl)amino]quinolin-4-yl}ethyl)-2-methylbenzamide] | 2.17 | 
9 | Cc1ccccc1C(=O)NC(C)c1cc(-c2c(C#N)cnn2C)nc2ccccc12 (stereo not drawn) [Example 108, N-{1-[2-(4-cyano-1-methyl-1H-pyrazol-5-yl)quinolin-4-yl]ethyl}-2-methylbenzamide] | 0.931 | 
10 | Cc1ccc(N2CC3CC(C2)N3C)cc1C(=O)N[C@H](C)c1cc(-c2cnn(C)c2)nc2ccccc12 [Example 252, 2-methyl-N—((R)-1-(2-(1-methyl-1H-pyrazol-4-yl)quinolin-4-yl)ethyl)-5-(6-methyl-3,6-diazabicyclo[3.1.1]heptan-3-yl)benzamide] |  | 0.005
11 | Cc1ccc(NC(=O)[C@H]2CCCCN2)cc1C(=O)N[C@H](C)c1cc(-n2ccnn2)nc2ccccc12 (single isomer, unassigned) [Example 30, (R)—N-(3-(((R*)-1-(2-(1H-1,2,3-triazol-1-yl)quinolin-4-yl)ethyl)carbamoyl)-4-methylphenyl)piperidine-2-carboxamide] | 7.73 | 
12 | Cc1ccc(N2CCNCC2)cc1C(=O)NC1(c2cc(-c3cnn(C)c3)cc3ccccc23)CC1 [Example 230, 2-methyl-N-(1-(3-(1-methyl-1H-pyrazol-4-yl)naphthalen-1-yl)cyclopropyl)-5-(piperazin-1-yl)benzamide] |  | 0.003
13 | Cc1ccc(CN)cc1C(=O)N[C@H](C)c1cc(-c2cc(C(=O)N(C)C)c[nH]2)nc2ccccc12 [Example 56, 5-{4-[(1R)-1-{[5-(aminomethyl)-2-methylphenyl]formamido}ethyl]quinolin-2-yl}-N,N-dimethyl-1H-pyrrole-3-carboxamide] | 0.02 | 
14 | Cc1cc(C(C)(C)NCc2cscn2)ccc1C(=O)N[C@H](C)c1cc(-c2cnn(C)c2)nc2ccccc12 [Example 241, (R)-2-methyl-N-(1-(2-(1-methyl-1H-pyrazol-4-yl)quinolin-4-yl)ethyl)-4-(2-((thiazol-4-ylmethyl)amino)propan-2-yl)benzamide] | 0.007 | 
15 | Cc1cc(COCc2cscn2)ccc1C(=O)N[C@H](C)c1cc(-c2cnn(C)c2)nc2ccccc12 [Example 274, (R)-2-methyl-N-(1-(2-(1-methyl-1H-pyrazol-4-yl)quinolin-4-yl)ethyl)-4-((thiazol-4-ylmethoxy)methyl)benzamide] |  | 0.002
16 | Cc1cc(CC(=O)N(C)C)ccc1C(=O)N[C@H](C)c1cc(-c2cnn(C)c2)nc2ccccc12 [Example 260, (R)-4-(2-(dimethylamino)-2-oxoethyl)-2-methyl-N-(1-(2-(1-methyl-1H-pyrazol-4-yl)quinolin-4-yl)ethyl)benzamide] | 0.244 | 
17 | Cc1ccccc1C(=O)NC(C)c1cc(NCC2CCCOC2)nc2ccccc12 (stereo not drawn) [Example 140, 2-methyl-N-[1-(2-{[(oxan-3-yl)methyl]amino}quinolin-4-yl)ethyl]benzamide] | 1.96 | 
18 | COC[C@H](OCc1cscn1)c1ccc(C(=O)NC2(c3cc(-c4cnn(C)c4)cc4ncccc34)CC2)c(C)c1 (single isomer, unassigned) [Example 335] | < 0.001 | 

Row | Structure (SMILES) | IC50 (read-out: IC50) [µM] | IC50 (IC50 (μM)) [µM]
19 | Cc1ccc(CN)cc1C(=O)NC1(c2cc(-c3cnn(C)c3)cc3ccccc23)CC1 [Example 75, 5-(aminomethyl)-2-methyl-N-(1-(3-(1-methyl-1H-pyrazol-4-yl)naphthalen-1-yl)cyclopropyl)benzamide] | 0.012 | 
20 | Cc1ccc(N2CCC3(CCCCN3)C2=O)cc1C(=O)N[C@H](C)c1cc(-c2cnn(C)c2)nc2ccccc12 (stereo partly drawn) [Example 240] | 0.026 | 
21 | CCn1cc(-c2cc(C(C)NC(=O)c3ccccc3C)c3ccccc3n2)cn1 (stereo not drawn) [Example 110, N-{1-[2-(1-ethyl-1H-pyrazol-4-yl)quinolin-4-yl]ethyl}-2-methylbenzamide] |  | 0.224
22 | Cc1ccc(CN)cc1C(=O)NC(C)c1cc(N2CCCC2=O)nc2ccccc12 (stereo not drawn) [Example 34, 5-(aminomethyl)-2-methyl-N-(1-(2-(2-oxopyrrolidin-1-yl)quinolin-4-yl)ethyl)benzamide] | 1.45 | 
23 | Cc1ccccc1C(=O)NC(C)c1cc(-c2ccc3c(c2)nnn3C)nc2ccccc12 (stereo not drawn) [Example 134] | 0.432 | 
24 | Cc1ccc(N2C[C@H]3C[C@@H]2CN3C)cc1C(=O)N[C@H](C)c1cc(-c2cnn(C)c2)nc2ccccc12 (single isomer, unassigned) [Example 281, 2-methyl-N—((R)-1-(2-(1-methyl-1H-pyrazol-4-yl)quinolin-4-yl)ethyl)-5-((1R*,4R*)-5-methyl-2,5-diazabicyclo[2.2.1]heptan-2-yl)benzamide] | 0.003 | 
25 | Cc1cc(C(C)OCc2cscn2)ncc1C(=O)N[C@H](C)c1cc(-c2cnn(C)c2)nc2ccccc12 (stereo partly drawn) [Example 321, 4-methyl-N—((R)-1-(2-(1-methyl-1H-pyrazol-4-yl)quinolin-4-yl)ethyl)-6-(1-(thiazol-4-ylmethoxy)ethyl)nicotinamide] | 0.003 | 
26 | Cc1cc(C2(NC(=O)c3ncc[nH]3)CC2)ccc1C(=O)N[C@H](C)c1cc(-c2cnn(C)c2)nc2ccccc12 [Example 213, (R)-N-(1-(3-methyl-4-((1-(2-(1-methyl-1H-pyrazol-4-yl)quinolin-4-yl)ethyl)carbamoyl)phenyl)cyclopropyl)-1H-imidazole-2-carboxamide] | 0.219 | 
27 | Cc1ccc(CN)cc1C(=O)N[C@H](C)c1cc(-c2cnn(C)c2)nc2ccccc12 [Example 11, (R)-5-(aminomethyl)-2-methyl-N-(1-(2-(1-methyl-1H-pyrazol-4-yl)quinolin-4-yl)ethyl)benzamide] | 0.027 | 
28 | Cc1ccccc1C(=O)NC(C)c1cc(-c2cc(C3CC3)nn2C)nc2ccccc12 (stereo not drawn) [Example 107, N-{1-[2-(3-cyclopropyl-1-methyl-1H-pyrazol-5-yl)quinolin-4-yl]ethyl}-2-methylbenzamide] | 0.757 | 
29 | Cc1ccc(N2CCN(C)CC2)cc1C(=O)NC1(c2cc(-c3cnn(C)c3)cc3ccccc23)CC1 [Example 231, 2-methyl-N-(1-(3-(1-methyl-1H-pyrazol-4-yl)naphthalen-1-yl)cyclopropyl)-5-(4-methylpiperazin-1-yl)benzamide] |  | 0.003
30 | COCc1cc(-c2cc(C(C)NC(=O)c3ccccc3C)c3ccccc3n2)cs1 (stereo not drawn) [Example 106, N-(1-{2-[5-(methoxymethyl)thiophen-3-yl]quinolin-4-yl}ethyl)-2-methylbenzamide] | 0.241 | 
31 | COCCn1nc(C)c(-c2cc(C(C)NC(=O)c3ccccc3C)c3ccccc3n2)c1C (stereo not drawn) [Example 121, N-(1-{2-[1-(2-methoxyethyl)-3,5-dimethyl-1H-pyrazol-4-yl]quinolin-4-yl}ethyl)-2-methylbenzamide] | 1.42 | 
32 | Cc1cc(COCc2cscn2)ccc1C(=O)NC1(c2cc(-c3cnn(C)c3)cc3nc(O)ccc23)CC1 [Example 358, N-(1-(2-hydroxy-7-(1-methyl-1H-pyrazol-4-yl)quinolin-5-yl)cyclopropyl)-2-methyl-4-((thiazol-4-ylmethoxy)methyl)benzamide] | < 0.001 | 
33 | Cc1cc(C(=O)NC(C)c2cscn2)ccc1C(=O)N[C@H](C)c1cc(-c2cnn(C)c2)nc2ccccc12 (stereo partly drawn) [Example 202] | 0.012 | 
34 | Cc1ccc(N2CCN(C)CC2)cc1C(=O)NC1(c2cc(-c3ccc(C(=O)N(C)C)[nH]3)cc3ccccc23)CC1 [Example 292, N,N-dimethyl-5-(4-(1-(2-methyl-5-(4-methylpiperazin-1-yl)benzamido)cyclopropyl)naphthalen-2-yl)-1H-pyrrole-2-carboxamide] | < 0.001 | 
35 | Cc1cc(COCc2cscn2)ccc1C(=O)NC1(c2cc(-c3cnn(C)c3)nc3ccccc23)CC1 [Example 323, 2-methyl-N-(1-(2-(1-methyl-1H-pyrazol-4-yl)quinolin-4-yl)cyclopropyl)-4-((thiazol-4-ylmethoxy)methyl)benzamide] | < 0.001 | 
36 | Cc1cc(C(=O)NCc2ncc[nH]2)ccc1C(=O)N[C@H](C)c1cc(-c2cnn(C)c2)nc2ccccc12 [Example 245] | 0.005 | 
